Measurements: publication PMC10907298 (Nature chemical biology, 2023)
“Also recorded” adds a separate entry of the source.

Experiments:
[1] = biological target: human STING R95A (Homo sapiens, UniProt Q86WV6, R95A); test: ISRE reporter assay with STING co-transfection in HEK293T cells
[2] = biological target: T1, mSTING C95R (Mus musculus, UniProt Q3TBT3, C95R); test: as above
T1 sequence (Q3TBT3 1-378 C95R): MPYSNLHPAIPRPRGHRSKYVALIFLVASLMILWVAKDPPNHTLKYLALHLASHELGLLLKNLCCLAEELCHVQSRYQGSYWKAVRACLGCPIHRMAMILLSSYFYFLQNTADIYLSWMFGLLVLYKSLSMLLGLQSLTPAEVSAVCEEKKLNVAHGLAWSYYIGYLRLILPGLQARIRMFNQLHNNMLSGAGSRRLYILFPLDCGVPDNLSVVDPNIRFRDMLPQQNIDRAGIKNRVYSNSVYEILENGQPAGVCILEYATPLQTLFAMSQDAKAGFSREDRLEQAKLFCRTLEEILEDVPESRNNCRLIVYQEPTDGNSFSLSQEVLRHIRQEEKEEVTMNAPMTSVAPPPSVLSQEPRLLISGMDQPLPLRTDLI

[3] = test system: BMDM, WT mSTING; test: IP10 induction in bone marrow-derived macrophages; type: cell-based, mouse; conditions: 50μM, n=1

Chain of human STING R95A (Q86WV6 whole entry R95A): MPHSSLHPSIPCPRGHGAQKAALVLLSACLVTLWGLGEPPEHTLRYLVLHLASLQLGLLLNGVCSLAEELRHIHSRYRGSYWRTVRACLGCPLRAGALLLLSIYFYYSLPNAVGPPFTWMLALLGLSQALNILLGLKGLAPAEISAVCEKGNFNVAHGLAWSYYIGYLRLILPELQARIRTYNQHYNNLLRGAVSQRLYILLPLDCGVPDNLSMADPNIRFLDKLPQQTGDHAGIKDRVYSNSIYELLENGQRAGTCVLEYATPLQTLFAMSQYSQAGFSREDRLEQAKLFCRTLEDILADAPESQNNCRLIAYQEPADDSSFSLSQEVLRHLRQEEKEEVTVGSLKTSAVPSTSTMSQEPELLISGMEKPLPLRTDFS

STING activation in words [2]: unable to restore the activity | ISRE reporter activity, mean ([2]; Log[μM] 0.3, Figure S1g): -9.8647 | ISRE reporter activity, mean ([2]; Log[μM] 1, Figure S1g): -24.0951 | ISRE reporter activity, mean ([2]; Log[μM] 1.7, Figure S1g): -51.7859 | ISRE reporter activity, mean ([2]; Log[μM] -0.4, Figure S1g): -3.941 | ISRE reporter activity, mean ([2]; Log[μM] -1.1, Figure S1g): -6.421 | ISRE reporter activity, mean ([2]; Log[μM] -1.8, Figure S1g): -3.26
Structure (SMILES): COc1cc(C(=O)O)ccc1NCc1ccc(C2(C(C)(C)C)OCC(C)(C)CO2)cc1 [NVS-STG2]
STING activation in words [1]: various degrees of reduction; also recorded: essentially irresponsive | IP10 [3]: 143 pg/mL
